According to PubChem BioAssay AID2060486 (Molecular Pharmacology Branch, DTP, NCI, 2025):

Test system: IGROV1 complex spheroids (HUVEC, MSC), viability % test/control
Experiment: Anticancer human tumor IGROV1 cell line growth inhibition [GQUAD];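 note: spheroids exposed to compounds for 7 days before readout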;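 for viability, T/C: 100% = DMSO vehicle control viability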
Conditions: for IC50: curve of first compound; for viability, T/C: stronger effect = lower value
How it was run: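 Viability of tumor cells grown as complex spheroids with endothelial and stromal cells, exposed to drug combinations. Top concentration at or near clinical Cmax (else 10 microM), diluted in half-log increments.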

[1] = second compound 0.0316 µM, first compound 0.0316 µM
[2] = second compound 0.0316 µM, first compound 0.1 µM
[3] = second compound 0.0316 µM, first compound 0.316 µM
[4] = second compound 0.0316 µM, first compound 1 µM
[5] = second compound 0.0316 µM, first compound 3.16 µM
[6] = second compound 0.0316 µM, first compound 10 µM
[7] = second compound 0.1 µM, first compound 0.0316 µM
[8] = second compound 0.1 µM, first compound 0.1 µM
[9] = second compound 0.1 µM, first compound 0.316 µM
[10] = second compound 0.1 µM, first compound 1 µM
[11] = second compound 0.1 µM, first compound 3.16 µM
[12] = second compound 0.1 µM, first compound 10 µM
[13] = second compound 0.316 µM, first compound 0.0316 µM
[14] = second compound 0.316 µM, first compound 0.1 µM
[15] = second compound 0.316 µM, first compound 0.316 µM
[16] = second compound 0.316 µM, first compound 1 µM
[17] = second compound 0.316 µM, first compound 3.16 µM
[18] = second compound 0.316 µM, first compound 10 µM
[19] = second compound 1 µM, first compound 0.0316 µM
[20] = second compound 1 µM, first compound 0.1 µM
[21] = second compound 1 µM, first compound 0.316 µM
[22] = second compound 1 µM, first compound 1 µM
[23] = second compound 1 µM, first compound 3.16 µM
[24] = second compound 1 µM, first compound 10 µM
[25] = second compound 3.16 µM, first compound 0.0316 µM
[26] = second compound 3.16 µM, first compound 0.1 µM
[27] = second compound 3.16 µM, first compound 0.316 µM
[28] = second compound 3.16 µM, first compound 1 µM
[29] = second compound 3.16 µM, first compound 3.16 µM
[30] = second compound 3.16 µM, first compound 10 µM
[31] = second compound 10 µM, first compound 0.0316 µM
[32] = second compound 10 µM, first compound 0.1 µM
[33] = second compound 10 µM, first compound 0.316 µM
[34] = second compound 10 µM, first compound 1 µM
[35] = second compound 10 µM, first compound 3.16 µM
[36] = second compound 10 µM, first compound 10 µM

Q: What does the source list for `COc1cccc2c1C(=O)c1c(O)c3c(c(O)c1C2=O)CC(O)(C(=O)CO)CC3OC1CC(N)C(O)C(C)O1` (stereo unspecified) + Cc1[nH]c2ccc(F)cc2c1-c1nc2c3cccnc3c3ncccc3c2[nH]1?
A: IC50 (second compound 0.0316 µM): 58.1 nM; IC50 (second compound 0.1 µM): 45.9 nM; IC50 (second compound 0.316 µM): < 31.6 nM; IC50 (second compound 1 µM): < 31.6 nM; IC50 (second compound 3.16 µM): < 31.6 nM; IC50 (second compound 10 µM): < 31.6 nM; viability, T/C [1]: 77.6%; viability, T/C [2]: 24.5%; viability, T/C [3]: 9.18%; viability, T/C [4]: 3.35%; viability, T/C [5]: 0.15%; viability, T/C [6]: 0.53%; viability, T/C [7]: 62.3%; viability, T/C [8]: 23.6%; viability, T/C [9]: 10.5%; viability, T/C [10]: 4.39%; viability, T/C [11]: 0.11%; viability, T/C [12]: 0.5%; viability, T/C [13]: 34.7%; viability, T/C [14]: 21.4%; viability, T/C [15]: 7.11%; viability, T/C [16]: 4.13%; viability, T/C [17]: 0.18%; viability, T/C [18]: 0.43%; viability, T/C [19]: 4.23%; viability, T/C [20]: 5.09%; viability, T/C [21]: 3.51%; viability, T/C [22]: 1.63%; viability, T/C [23]: 0.1%; viability, T/C [24]: 0.52%; viability, T/C [25]: 3.48%; viability, T/C [26]: 5.09%; viability, T/C [27]: 3.34%; viability, T/C [28]: 1.41%; viability, T/C [29]: 0.08%; viability, T/C [30]: 0.36%; viability, T/C [31]: 4.02%; viability, T/C [32]: 3.99%; viability, T/C [33]: 2.84%; viability, T/C [34]: 1.32%; viability, T/C [35]: 0.18%; viability, T/C [36]: 0.42%

Q: Which IC50 (second compound 0.0316 µM) does the source give for `Nc1ccn(C2OC(CO)C(O)C2(F)F)c(=O)n1` (stereo unspecified) + Cc1[nH]c2ccc(F)cc2c1-c1nc2c3cccnc3c3ncccc3c2[nH]1 here?
A: The IC50 was under 31.6 nM.

Q: And the IC50 (second compound 0.1 µM)?
A: Its IC50 is under 31.6 nM.

Q: What about the IC50 (second compound 0.316 µM) of the same compound?
A: The IC50 was under 31.6 nM.

Q: What about the IC50 (second compound 1 µM) of the same compound?
A: The IC50 was under 31.6 nM.

Q: What about the IC50 (second compound 3.16 µM) of the same compound?
A: The IC50 was under 31.6 nM.

Q: What about the IC50 (second compound 10 µM) of the same compound?
A: The IC50 was under 31.6 nM.

Q: And the viability, T/C [1]?
A: Its viability, T/C is 10.5%.

Q: And the viability, T/C [2]?
A: Its viability, T/C is 6.29%.

Q: What about the viability, T/C [3] of the same compound?
A: The viability, T/C was 5.85%.

Q: What about the viability, T/C [4] of the same compound?
A: Its viability, T/C is 6.52%.

Q: And the viability, T/C [5]?
A: The viability, T/C was 6.69%.

Q: What about the viability, T/C [6] of the same compound?
A: Its viability, T/C is 5.57%.

Q: What about the viability, T/C [7] of the same compound?
A: Its viability, T/C is 18%.

Q: What about the viability, T/C [8] of the same compound?
A: Its viability, T/C is 6.64%.

Q: And the viability, T/C [9]?
A: Its viability, T/C is 5.87%.

Q: What about the viability, T/C [10] of the same compound?
A: The viability, T/C was 5.31%.

Q: And the viability, T/C [11]?
A: Its viability, T/C is 5.55%.

Q: And the viability, T/C [12]?
A: Its viability, T/C is 6.59%.

Q: And the viability, T/C [13]?
A: Its viability, T/C is 11.5%.

Q: What about the viability, T/C [14] of the same compound?
A: Its viability, T/C is 6.38%.

Q: What about the viability, T/C [15] of the same compound?
A: Its viability, T/C is 6.31%.

Q: What about the viability, T/C [16] of the same compound?
A: Its viability, T/C is 6.72%.

Q: What about the viability, T/C [17] of the same compound?
A: Its viability, T/C is 6.12%.

Q: What about the viability, T/C [18] of the same compound?
A: The viability, T/C was 5.22%.

Q: What about the viability, T/C [19] of the same compound?
A: Its viability, T/C is 4.26%.

Q: What about the viability, T/C [20] of the same compound?
A: Its viability, T/C is 5%.

Q: What about the viability, T/C [21] of the same compound?
A: The viability, T/C was 3.88%.

Q: What about the viability, T/C [22] of the same compound?
A: The viability, T/C was 3.77%.

Q: What about the viability, T/C [23] of the same compound?
A: The viability, T/C was 3.84%.

Q: And the viability, T/C [24]?
A: The viability, T/C was 3.25%.

Q: What about the viability, T/C [25] of the same compound?
A: Its viability, T/C is 5.06%.

Q: And the viability, T/C [26]?
A: Its viability, T/C is 4.43%.

Q: And the viability, T/C [27]?
A: The viability, T/C was 3.62%.

Q: And the viability, T/C [28]?
A: The viability, T/C was 4.5%.

Q: What about the viability, T/C [29] of the same compound?
A: The viability, T/C was 4.02%.

Q: What about the viability, T/C [30] of the same compound?
A: The viability, T/C was 2.81%.

Q: What about the viability, T/C [31] of the same compound?
A: Its viability, T/C is 3.58%.

Q: And the viability, T/C [32]?
A: Its viability, T/C is 4.69%.

Q: And the viability, T/C [33]?
A: The viability, T/C was 4.1%.

Q: What about the viability, T/C [34] of the same compound?
A: Its viability, T/C is 4.26%.

Q: And the viability, T/C [35]?
A: The viability, T/C was 3.44%.

Q: What about the viability, T/C [36] of the same compound?
A: The viability, T/C was 2.86%.

Q: For `O=c1[nH]cc(F)c(=O)[nH]1` + Cc1[nH]c2ccc(F)cc2c1-c1nc2c3cccnc3c3ncccc3c2[nH]1, which IC50 (second compound 0.0316 µM) is on record?
A: Its IC50 is 6750 nM.

Q: What about the IC50 (second compound 0.1 µM) of the same compound?
A: The IC50 was 5500 nM.

Q: And the IC50 (second compound 0.316 µM)?
A: Its IC50 is 4000 nM.

Q: What about the IC50 (second compound 1 µM) of the same compound?
A: Its IC50 is under 31.6 nM.

Q: And the IC50 (second compound 3.16 µM)?
A: The IC50 was under 31.6 nM.

Q: What about the IC50 (second compound 10 µM) of the same compound?
A: Its IC50 is under 31.6 nM.

Q: What about the viability, T/C [1] of the same compound?
A: Its viability, T/C is 104%.

Q: And the viability, T/C [2]?
A: The viability, T/C was 83.6%.

Q: And the viability, T/C [3]?
A: Its viability, T/C is 103%.

Q: What about the viability, T/C [4] of the same compound?
A: The viability, T/C was 80.3%.

Q: What about the viability, T/C [5] of the same compound?
A: Its viability, T/C is 82.6%.

Q: What about the viability, T/C [6] of the same compound?
A: The viability, T/C was 34.5%.

Q: And the viability, T/C [7]?
A: Its viability, T/C is 96.1%.

Q: What about the viability, T/C [8] of the same compound?
A: Its viability, T/C is 104%.

Q: What about the viability, T/C [9] of the same compound?
A: The viability, T/C was 84%.

Q: And the viability, T/C [10]?
A: Its viability, T/C is 69.5%.

Q: And the viability, T/C [11]?
A: The viability, T/C was 80.8%.

Q: What about the viability, T/C [12] of the same compound?
A: Its viability, T/C is 27.8%.

Q: What about the viability, T/C [13] of the same compound?
A: The viability, T/C was 79.6%.

Q: What about the viability, T/C [14] of the same compound?
A: Its viability, T/C is 67.5%.

Q: And the viability, T/C [15]?
A: The viability, T/C was 77.1%.

Q: And the viability, T/C [16]?
A: Its viability, T/C is 70.8%.

Q: And the viability, T/C [17]?
A: Its viability, T/C is 55.4%.

Q: What about the viability, T/C [18] of the same compound?
A: Its viability, T/C is 24.3%.

Q: What about the viability, T/C [19] of the same compound?
A: The viability, T/C was 5.37%.

Q: And the viability, T/C [20]?
A: The viability, T/C was 4.95%.

Q: What about the viability, T/C [21] of the same compound?
A: The viability, T/C was 4.49%.

Q: And the viability, T/C [22]?
A: The viability, T/C was 4.87%.

Q: And the viability, T/C [23]?
A: The viability, T/C was 5.05%.

Q: And the viability, T/C [24]?
A: Its viability, T/C is 5.26%.

Q: What about the viability, T/C [25] of the same compound?
A: Its viability, T/C is 4.5%.

Q: What about the viability, T/C [26] of the same compound?
A: The viability, T/C was 4.46%.

Q: What about the viability, T/C [27] of the same compound?
A: Its viability, T/C is 5.38%.

Q: What about the viability, T/C [28] of the same compound?
A: Its viability, T/C is 4.48%.

Q: And the viability, T/C [29]?
A: Its viability, T/C is 5.61%.

Q: What about the viability, T/C [30] of the same compound?
A: Its viability, T/C is 4.44%.

Q: And the viability, T/C [31]?
A: The viability, T/C was 4.32%.

Q: And the viability, T/C [32]?
A: Its viability, T/C is 4.75%.

Q: What about the viability, T/C [33] of the same compound?
A: The viability, T/C was 4.71%.

Q: What about the viability, T/C [34] of the same compound?
A: The viability, T/C was 4.66%.

Q: And the viability, T/C [35]?
A: Its viability, T/C is 4.72%.

Q: And the viability, T/C [36]?
A: Its viability, T/C is 5.12%.
